# Measurements: the supplement of paper PMC8882468
# ± gives the standard deviation of the averaged measurements.
# Tested on: HCI-023 (organoid from a triple-negative breast cancer xenograft)
# Experiment: CTG-3D luminescence at 96 h relative to day-0 seeding control (ratio to day 0); higher = more growth / less cytotoxicity; PDxO 3D drug screen, 96 h, CTG-3D normalised to day-0 seeding control.
# Conditions: 12.5 pM; days in culture: 111
row,SMILES,CTG-3D luminescence at 96 h
1,CC(C)(C(=O)NCC(F)(F)C(F)(F)F)C(=O)N[C@@H]1C(=O)Nc2ccccc2-c2ccccc21,1.36
2,C=CC(=O)N1CCC[C@@H](n2nc(-c3ccc(Oc4ccccc4)cc3)c3c(N)ncnc32)C1 [ibrutinib],1.24
3,CNC(=O)c1cccc(-c2ccc3c(N4CCOC[C@@H]4C)nc(N4CCOC[C@@H]4C)nc3n2)c1 [vistusertib],1.41
4,CCN(c1cc(C#CCN2CCOCC2)cc(C(=O)NCc2c(C)cc(C)[nH]c2=O)c1C)[C@H]1CC[C@H](N(C)CCOC)CC1,1.69

# Same assay, conditions: 12.5 pM; days in culture: 128
row,SMILES,CTG-3D luminescence at 96 h
1,CC(C)(C(=O)NCC(F)(F)C(F)(F)F)C(=O)N[C@@H]1C(=O)Nc2ccccc2-c2ccccc21,1.61 ± 0.47
2,C=CC(=O)N1CCC[C@@H](n2nc(-c3ccc(Oc4ccccc4)cc3)c3c(N)ncnc32)C1 [ibrutinib],1.42 ± 0.055
3,CNC(=O)c1cccc(-c2ccc3c(N4CCOC[C@@H]4C)nc(N4CCOC[C@@H]4C)nc3n2)c1 [vistusertib],1.83 ± 0.19
4,CCN(c1cc(C#CCN2CCOCC2)cc(C(=O)NCc2c(C)cc(C)[nH]c2=O)c1C)[C@H]1CC[C@H](N(C)CCOC)CC1,1.51 ± 0.29

# Same assay, conditions: 0.00025 µM; days in culture: 111
row,SMILES,CTG-3D luminescence at 96 h
1,CC(C)(C(=O)NCC(F)(F)C(F)(F)F)C(=O)N[C@@H]1C(=O)Nc2ccccc2-c2ccccc21,1.08
2,C=CC(=O)N1CCC[C@@H](n2nc(-c3ccc(Oc4ccccc4)cc3)c3c(N)ncnc32)C1 [ibrutinib],1.25
3,CNC(=O)c1cccc(-c2ccc3c(N4CCOC[C@@H]4C)nc(N4CCOC[C@@H]4C)nc3n2)c1 [vistusertib],1.27
4,CCN(c1cc(C#CCN2CCOCC2)cc(C(=O)NCc2c(C)cc(C)[nH]c2=O)c1C)[C@H]1CC[C@H](N(C)CCOC)CC1,1.38

# Same assay, conditions: 0.00025 µM; days in culture: 128
row,SMILES,CTG-3D luminescence at 96 h
1,CC(C)(C(=O)NCC(F)(F)C(F)(F)F)C(=O)N[C@@H]1C(=O)Nc2ccccc2-c2ccccc21,1.47 ± 0.38
2,C=CC(=O)N1CCC[C@@H](n2nc(-c3ccc(Oc4ccccc4)cc3)c3c(N)ncnc32)C1 [ibrutinib],1.43 ± 0.18
3,CNC(=O)c1cccc(-c2ccc3c(N4CCOC[C@@H]4C)nc(N4CCOC[C@@H]4C)nc3n2)c1 [vistusertib],1.59 ± 0.24
4,CCN(c1cc(C#CCN2CCOCC2)cc(C(=O)NCc2c(C)cc(C)[nH]c2=O)c1C)[C@H]1CC[C@H](N(C)CCOC)CC1,1.63 ± 0.46

# Same assay, conditions: 0.005 µM; days in culture: 111
row,SMILES,CTG-3D luminescence at 96 h
1,CC(C)(C(=O)NCC(F)(F)C(F)(F)F)C(=O)N[C@@H]1C(=O)Nc2ccccc2-c2ccccc21,0.961
2,C=CC(=O)N1CCC[C@@H](n2nc(-c3ccc(Oc4ccccc4)cc3)c3c(N)ncnc32)C1 [ibrutinib],1.32
3,CNC(=O)c1cccc(-c2ccc3c(N4CCOC[C@@H]4C)nc(N4CCOC[C@@H]4C)nc3n2)c1 [vistusertib],1.29
4,CCN(c1cc(C#CCN2CCOCC2)cc(C(=O)NCc2c(C)cc(C)[nH]c2=O)c1C)[C@H]1CC[C@H](N(C)CCOC)CC1,1.47

# Same assay, conditions: 0.005 µM; days in culture: 128
row,SMILES,CTG-3D luminescence at 96 h
1,CC(C)(C(=O)NCC(F)(F)C(F)(F)F)C(=O)N[C@@H]1C(=O)Nc2ccccc2-c2ccccc21,1.06 ± 0.24
2,C=CC(=O)N1CCC[C@@H](n2nc(-c3ccc(Oc4ccccc4)cc3)c3c(N)ncnc32)C1 [ibrutinib],1.55 ± 0.26
3,CNC(=O)c1cccc(-c2ccc3c(N4CCOC[C@@H]4C)nc(N4CCOC[C@@H]4C)nc3n2)c1 [vistusertib],1.44 ± 0.4
4,CCN(c1cc(C#CCN2CCOCC2)cc(C(=O)NCc2c(C)cc(C)[nH]c2=O)c1C)[C@H]1CC[C@H](N(C)CCOC)CC1,1.57 ± 0.1

# Same assay, conditions: 0.1 µM; days in culture: 111
row,SMILES,CTG-3D luminescence at 96 h
1,CC(C)(C(=O)NCC(F)(F)C(F)(F)F)C(=O)N[C@@H]1C(=O)Nc2ccccc2-c2ccccc21,0.975
2,C=CC(=O)N1CCC[C@@H](n2nc(-c3ccc(Oc4ccccc4)cc3)c3c(N)ncnc32)C1 [ibrutinib],1.2
3,CNC(=O)c1cccc(-c2ccc3c(N4CCOC[C@@H]4C)nc(N4CCOC[C@@H]4C)nc3n2)c1 [vistusertib],1.09
4,CCN(c1cc(C#CCN2CCOCC2)cc(C(=O)NCc2c(C)cc(C)[nH]c2=O)c1C)[C@H]1CC[C@H](N(C)CCOC)CC1,1.39

# Same assay, conditions: 0.1 µM; days in culture: 128
row,SMILES,CTG-3D luminescence at 96 h
1,CC(C)(C(=O)NCC(F)(F)C(F)(F)F)C(=O)N[C@@H]1C(=O)Nc2ccccc2-c2ccccc21,1.27 ± 0.017
2,C=CC(=O)N1CCC[C@@H](n2nc(-c3ccc(Oc4ccccc4)cc3)c3c(N)ncnc32)C1 [ibrutinib],1.48 ± 0.2
3,CNC(=O)c1cccc(-c2ccc3c(N4CCOC[C@@H]4C)nc(N4CCOC[C@@H]4C)nc3n2)c1 [vistusertib],1.27 ± 0.088
4,CCN(c1cc(C#CCN2CCOCC2)cc(C(=O)NCc2c(C)cc(C)[nH]c2=O)c1C)[C@H]1CC[C@H](N(C)CCOC)CC1,1.99 ± 0.051

# Same assay, conditions: 1 µM; days in culture: 111
row,SMILES,CTG-3D luminescence at 96 h
1,CC(C)(C(=O)NCC(F)(F)C(F)(F)F)C(=O)N[C@@H]1C(=O)Nc2ccccc2-c2ccccc21,0.945
2,C=CC(=O)N1CCC[C@@H](n2nc(-c3ccc(Oc4ccccc4)cc3)c3c(N)ncnc32)C1 [ibrutinib],1.03
3,CNC(=O)c1cccc(-c2ccc3c(N4CCOC[C@@H]4C)nc(N4CCOC[C@@H]4C)nc3n2)c1 [vistusertib],0.468
4,CCN(c1cc(C#CCN2CCOCC2)cc(C(=O)NCc2c(C)cc(C)[nH]c2=O)c1C)[C@H]1CC[C@H](N(C)CCOC)CC1,1.14

# Same assay, conditions: 1 µM; days in culture: 128
row,SMILES,CTG-3D luminescence at 96 h
1,CC(C)(C(=O)NCC(F)(F)C(F)(F)F)C(=O)N[C@@H]1C(=O)Nc2ccccc2-c2ccccc21,1.17 ± 0.31
2,C=CC(=O)N1CCC[C@@H](n2nc(-c3ccc(Oc4ccccc4)cc3)c3c(N)ncnc32)C1 [ibrutinib],1.26 ± 0.019
3,CNC(=O)c1cccc(-c2ccc3c(N4CCOC[C@@H]4C)nc(N4CCOC[C@@H]4C)nc3n2)c1 [vistusertib],0.78 ± 0.029
4,CCN(c1cc(C#CCN2CCOCC2)cc(C(=O)NCc2c(C)cc(C)[nH]c2=O)c1C)[C@H]1CC[C@H](N(C)CCOC)CC1,1.77 ± 0.31

# Same assay, conditions: 10 µM; days in culture: 111
row,SMILES,CTG-3D luminescence at 96 h
1,CC(C)(C(=O)NCC(F)(F)C(F)(F)F)C(=O)N[C@@H]1C(=O)Nc2ccccc2-c2ccccc21,1.09
2,C=CC(=O)N1CCC[C@@H](n2nc(-c3ccc(Oc4ccccc4)cc3)c3c(N)ncnc32)C1 [ibrutinib],1.02
3,CNC(=O)c1cccc(-c2ccc3c(N4CCOC[C@@H]4C)nc(N4CCOC[C@@H]4C)nc3n2)c1 [vistusertib],0.406
4,CCN(c1cc(C#CCN2CCOCC2)cc(C(=O)NCc2c(C)cc(C)[nH]c2=O)c1C)[C@H]1CC[C@H](N(C)CCOC)CC1,1.42

# Same assay, conditions: 10 µM; days in culture: 128
row,SMILES,CTG-3D luminescence at 96 h
1,CC(C)(C(=O)NCC(F)(F)C(F)(F)F)C(=O)N[C@@H]1C(=O)Nc2ccccc2-c2ccccc21,1.65 ± 0.21
2,C=CC(=O)N1CCC[C@@H](n2nc(-c3ccc(Oc4ccccc4)cc3)c3c(N)ncnc32)C1 [ibrutinib],1.03 ± 0.079
3,CNC(=O)c1cccc(-c2ccc3c(N4CCOC[C@@H]4C)nc(N4CCOC[C@@H]4C)nc3n2)c1 [vistusertib],0.864 ± 0.023
4,CCN(c1cc(C#CCN2CCOCC2)cc(C(=O)NCc2c(C)cc(C)[nH]c2=O)c1C)[C@H]1CC[C@H](N(C)CCOC)CC1,2.02 ± 0.27

# Same assay, conditions: 100 µM; days in culture: 111
row,SMILES,CTG-3D luminescence at 96 h
1,CC(C)(C(=O)NCC(F)(F)C(F)(F)F)C(=O)N[C@@H]1C(=O)Nc2ccccc2-c2ccccc21,0.672
2,C=CC(=O)N1CCC[C@@H](n2nc(-c3ccc(Oc4ccccc4)cc3)c3c(N)ncnc32)C1 [ibrutinib],-0.00294
3,CNC(=O)c1cccc(-c2ccc3c(N4CCOC[C@@H]4C)nc(N4CCOC[C@@H]4C)nc3n2)c1 [vistusertib],0.242
4,CCN(c1cc(C#CCN2CCOCC2)cc(C(=O)NCc2c(C)cc(C)[nH]c2=O)c1C)[C@H]1CC[C@H](N(C)CCOC)CC1,0.673

# Same assay, conditions: 100 µM; days in culture: 128
row,SMILES,CTG-3D luminescence at 96 h
1,CC(C)(C(=O)NCC(F)(F)C(F)(F)F)C(=O)N[C@@H]1C(=O)Nc2ccccc2-c2ccccc21,0.804 ± 0.066
2,C=CC(=O)N1CCC[C@@H](n2nc(-c3ccc(Oc4ccccc4)cc3)c3c(N)ncnc32)C1 [ibrutinib],-0.00478 ± 0.0012
3,CNC(=O)c1cccc(-c2ccc3c(N4CCOC[C@@H]4C)nc(N4CCOC[C@@H]4C)nc3n2)c1 [vistusertib],0.541 ± 0.19
4,CCN(c1cc(C#CCN2CCOCC2)cc(C(=O)NCc2c(C)cc(C)[nH]c2=O)c1C)[C@H]1CC[C@H](N(C)CCOC)CC1,1.09 ± 0.066

# Same assay, conditions: 625 fM; days in culture: 111
row,SMILES,CTG-3D luminescence at 96 h
1,CC(C)(C(=O)NCC(F)(F)C(F)(F)F)C(=O)N[C@@H]1C(=O)Nc2ccccc2-c2ccccc21,1.53
2,C=CC(=O)N1CCC[C@@H](n2nc(-c3ccc(Oc4ccccc4)cc3)c3c(N)ncnc32)C1 [ibrutinib],1.29
3,CNC(=O)c1cccc(-c2ccc3c(N4CCOC[C@@H]4C)nc(N4CCOC[C@@H]4C)nc3n2)c1 [vistusertib],1.5
4,CCN(c1cc(C#CCN2CCOCC2)cc(C(=O)NCc2c(C)cc(C)[nH]c2=O)c1C)[C@H]1CC[C@H](N(C)CCOC)CC1,2.1

# Same assay, conditions: 625 fM; days in culture: 128
row,SMILES,CTG-3D luminescence at 96 h
1,CC(C)(C(=O)NCC(F)(F)C(F)(F)F)C(=O)N[C@@H]1C(=O)Nc2ccccc2-c2ccccc21,1.64 ± 0.92
2,C=CC(=O)N1CCC[C@@H](n2nc(-c3ccc(Oc4ccccc4)cc3)c3c(N)ncnc32)C1 [ibrutinib],1.54 ± 0.15
3,CNC(=O)c1cccc(-c2ccc3c(N4CCOC[C@@H]4C)nc(N4CCOC[C@@H]4C)nc3n2)c1 [vistusertib],1.7 ± 0.29
4,CCN(c1cc(C#CCN2CCOCC2)cc(C(=O)NCc2c(C)cc(C)[nH]c2=O)c1C)[C@H]1CC[C@H](N(C)CCOC)CC1,1.5 ± 0.32
